From patent publication US11084826B2, “RSV antiviral pyrazolo- and triazolo-pyrimidine compounds” (Janssen Sciences Ireland Unlimited Company, priority 2015, dated 2021)
Values joined by “and” are separate entries in the source; they are usually repeats but may differ in a detail not shown here. Equal entries are not always repeated. Where two headings read alike, the source gives them in different places.

Assays:
[1] = tested on: rgRSV224 virus; test: Antiviral activity: inhibition of rgRSV224 (GFP-expressing RSV) replication in HeLa cells, GFP expression read-out; assay type: cell-based, respiratory syncytial virus (RSV); conditions: for RSV HELA pEC50: rgRSV224 virus (MOI=1) in HeLa cells, GFP read-out; for EC50: human respiratory syncytial virus, HeLa, read-out: RSV HELA pEC50, rgRSV224 virus (MOI=1) in HeLa cells, GFP read-out (converted)
In short: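 HeLa cells (3,000/well) were infected with GFP-expressing rgRSV224 (MOI=1) in the presence of 9 serial 4-fold compound dilutions (0.05% DMSO) and incubated at 37° C, 5% CO2. After three days, GFP expression was measured by laser microscopy. EC50 is the concentration giving 50% inhibition of GFP expression.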

[2] = tested on: HeLa cells; test: Cytotoxicity in HeLa cells, ATP content measured with the ATPlite kit; assay type: cell-based
[3] = as above; assay type: cell-based; conditions: human, TOX HELA pCC50

| Structure (SMILES) | RSV HELA pEC50 [1] | TOX HELA pCC50 [2] | further results |
| --- | --- | --- | --- |
| C[C@@H]1c2ccccc2CCN1C(=O)c1cc(C2(C)CC2)n2nc(-c3cccc(/C=C/C(=O)O)c3F)cc2n1 [Compound M36] | 7.99 | 4.26 | – |
| C[C@@H]1CCCCCN1C(=O)c1cc(N(C)C)n2nc(-c3ccc(/C=C/C(=O)O)cc3F)cc2n1 [Compound M4] | 6.80 | <4.60 | – |
| CCc1cc(C(=O)N2CCCCCC2C)nc2cc(-c3ccccc3Cl)nn12 (stereo not shown) [Compound A3] | 5.45 | 4.40 | – |
| CCc1cc(C(=O)N2CCCCC[C@H]2C)nc2cc(-c3ccc(OC)c(/C=C/C(=O)O)c3F)nn12 [Compound M34] | 7.04 | <4 | – |
| C[C@@H]1CCCCCN1C(=O)c1cc(C2CC2)n2nc(-c3ccc(-c4ccc(C(=O)O)cn4)cc3F)cc2n1 [Compound F21] | 7.28 | 4.37 | – |
| CC1c2ccsc2CCN1C(=O)c1cc(C2(C)CC2)n2nc(-c3cccc(/C=C/C(=O)O)c3F)cc2n1 (stereo not shown) [Compound M47] | 7.87 | 4.07 | – |
| CCc1cc(C(=O)N2CCn3c(C)ccc3C2C)nc2cc(-c3ccc(C(N)=O)cc3F)nn12 (stereo not shown) [Compound I36] | 6.58 | <4.60 | – |
| CCc1cc(C(=O)N2CCCCCC2C)nc2cc(-c3ccc(NC(=O)OCC4CCCN4)cc3F)nn12 (stereo not shown) [Compound C3] | 6.78 and 6.55 | – | TOX HELA pCC50 ([2]; HeLa cells, cytotoxicity): <4.60 and 4.89 |
| CCc1cc(C(=O)N2CCCCC[C@H]2C)nc2cc(-c3ccc(-c4nc(C(=O)O)ccc4F)cc3F)nn12 [Compound F20] | 7.07 | 4.30 | – |
| CCc1cc(C(=O)N2CCCCC[C@H]2C)nc2cc(-c3ccc4c(c3F)C=C(C(=O)O)CO4)nn12 [Compound F46] | 7.31 | <4 | – |
| CCc1cc(C(=O)N2CCCC3(CC=CC3)C2C)nc2cc(-c3cccc(/C=C/C(=O)O)c3F)nn12 (stereo not shown) [Compound M39] | 6.19 | <4 | – |
| CCc1cc(C(=O)N2CCc3ccccc3C2C)nc2cc(-c3ccc(/C=C/C(=O)O)cc3Cl)nn12 (stereo not shown) [Compound M6] | 6.84 | <4.60 | – |
| C[C@@H]1CCCCCN1C(=O)c1cc(C2(C)CC2)n2nc(-c3cccc(/C=C/C(=O)O)c3F)cc2n1 [Compound M22] | 7.34 | 4.05 | – |
| CCc1cc(C(=O)N2CCCCC[C@H]2C)nc2cc(-c3ccc4oc(C(=O)O)cc4c3F)nn12 [Compound F44] | 6.40 | 4.25 | – |
| CCc1cc(C(=O)N2CCCCC[C@H]2C)nc2cc(-c3ccc(/C=C/C(=O)O)cc3F)nn12 [Compound M7] | 7.00 | <4.60 | – |
| CC(C)Cc1cc(C(=O)N2CCCCC[C@H]2C)nc2cc(-c3ccc(N4CC[C@H](C(=O)O)C4)cc3F)nn12 [Compound W14] | 7.53 | 4.29 | – |
| CCc1cc(C(=O)N2CCn3nccc3C2C)nc2cc(-c3ccc(C(N)=O)cc3F)nn12 (stereo not shown) [Compound I37] | 6.24 | <4.60 | – |
| C[C@@H]1CCCCCN1C(=O)c1cc(C2CCC2)n2nc(-c3ccc(/C=C/C(=O)O)cc3F)cc2n1 [Compound M19] | 7.72 | – | EC50 [1]: 0.0302 µM; TOX HELA pCC50 ([2]; human, 3 days): 4.49; CC50 at 3 days [3]: 38.9 µM |
| CCc1cc(C(=O)N2CCCCC[C@H]2C)nc2cc(-c3cccc(/C=C\C(=O)O)c3F)nn12 [Compound M31] | 6.13 | <4 | – |
| CCc1cc(C(=O)N2CCc3ccccc3[C@H]2C)nc2cc(-c3ccc(C4C[C@H]4C(=O)O)cc3F)nn12 (stereo partly shown) [Compound O15] | 7.91 | 4.32 | – |
| CC(C)Cc1cc(C(=O)N2CCCCC[C@H]2C)nc2cc(-c3ccc(-n4cc(C(=O)O)cn4)cc3F)nn12 [Compound W13] | 7.45 | 4.38 | – |
| CCCC(C)N(C)C(=O)c1cc(CC)n2nc(-c3cccc(/C=C/C(=O)O)c3F)cc2n1 (stereo not shown) [Compound M38] | 6.65 | <4 | – |
| CCc1cc(C(=O)N2CCCCC[C@H]2C)nc2cc(-c3ccc4c(c3F)OCC(C(=O)O)C4)nn12 (stereo partly shown) [Compound F42] | 7.16 | <4 | – |

| Structure (SMILES) | RSV HELA pEC50 [1] | TOX HELA pCC50 [2] | further results |
| --- | --- | --- | --- |
| CCc1cc(C(=O)N2CCCCCC2C)nc2cc(-c3ccc4[nH]c(=O)ccc4c3)nn12 (stereo not shown) [Compound A15] | 6.47 | <4.60 | – |
| CC1CCCCCN1C(=O)c1cc(N2CCCC2)n2nc(-c3ccc(N(C)C)cc3)cc2n1 (stereo not shown) [Compound A19] | 5.34 | 4.42 | – |
| CCc1cc(C(=O)N2CCCCCN2C)nc2cc(-c3cccc(/C=C/C(=O)O)c3F)nn12 [Compound M40] | 6.37 | <4 | – |
| CN1CCCCCN1C(=O)c1cc(C2(C)CC2)n2nc(-c3cccc(/C=C/C(=O)O)c3F)cc2n1 [Compound M37] | 7.10 | <4 | – |
| CCc1cc(C(=O)N2CCn3cccc3C2C)nc2cc(-c3cccc(/C=C/C(=O)O)c3F)nn12 (stereo not shown) [Compound M45] | 7.54 | <4 | – |
| CCc1cc(C(=O)N2CCCCCC2C)nc2cc(-c3ccc(N(C)C)cc3)nn12 (stereo not shown) [Compound A2] | 5.52 | <4.60 | – |
| CNc1cc(C(=O)N2CCc3ccccc3C2C)nc2cc(-c3ccc(/C=C/C(=O)O)cc3F)nn12 (stereo not shown) [Compound M8] | 7.31 | <4.60 | – |
| C[C@@H]1CCCCCN1C(=O)c1cc(C2CC2)n2nc(-c3ccc(/C=C/C(=O)O)cc3F)cc2n1 [Compound M21] | 7.16 | 4.34 | – |
| CCc1cc(C(=O)N2CCc3ccccc3[C@H]2C)nc2cc(-c3ccc4c(c3F)OCC(C(=O)O)=C4)nn12 [Compound F54] | 8.59 | 4.75 | – |
| CCCC(C)N(CC)C(=O)c1cc(CC)n2nc(-c3ccccc3F)cc2n1 (stereo not shown) [Compound A16] | 5.57 | 4.45 | – |
| CCc1cc(C(=O)N2CCCCC[C@H]2C)nc2cc(-c3ccc(C4=CCCC(C(=O)O)C4)cc3F)nn12 (stereo partly shown) [Compound F52] | 6.81 | 4.22 | – |
| CCc1cc(C(=O)N2CCCCC[C@H]2C)nc2cc(-c3ccc(-n4cc(C(=O)O)cn4)cc3F)nn12 [Compound W2] | – | – | TOX HELA pCC50 ([2]; human, 3 days): 4.31; CC50 at 3 days [3]: > 25.1 µM |
| CCc1cc(C(=O)N2CCc3ccccc3[C@H]2C)nc2cc(-c3ccc4cc(C(=O)O)ccc4c3F)nn12 [Compound F34] | 7.46 | 4.17 | – |
| C[C@@H]1CCCCCN1C(=O)c1cc(C2(C)COC2)n2nc(-c3ccc(C4C[C@H]4C(=O)O)cc3F)cc2n1 (stereo partly shown) [Compound O17] | 7.29 | 4.11 | – |
| CCc1cc(C(=O)N2CCCCC[C@H]2C)nc2cc(-c3ccc4c(c3F)OC[C@H](C(=O)O)C4)nn12 [Compound F64] | 7.12 | <4 | – |
| CCc1cc(C(=O)N2CCc3ccccc3C2C)nc2cc(-c3cc4cccnc4cc3F)nn12 (stereo not shown) [Compound A31] | 6.20 | <4.60 | – |
| CCc1cc(C(=O)N2CCCCCC2C)nc2cc(-c3ccc(NC(=O)CC4CCCCN(C)C4=O)cc3)nn12 (stereo not shown) [Compound E9] | – | – | EC50 [1]: 0.17 µM; melting point: 255 to 260 °C; CC50 at 3 days [3]: > 25.1 µM |
| CCc1cc(C(=O)N2CCCCCC2C)nc2cc(-c3ccc(-c4ccc(C(=O)O)cn4)cc3F)nn12 (stereo not shown) [Compound F14] | – | – | EC50 [1]: 0.182 µM; melting point: 245 to 250 °C; CC50 at 3 days [3]: > 25.1 µM |
| CCCNC(=O)c1ccc(-c2cc3nc(C(=O)N4CCCCCC4C)cc(CC)n3n2)c(F)c1 (stereo not shown) [Compound L3] | – | – | EC50 [1]: 0.24 µM; melting point: 188 °C; CC50 at 3 days [3]: > 25.1 µM |
| CCc1cc(C(=O)N2CCc3sccc3[C@H]2C)nc2cc(-c3ccc(-c4ccc(C(=O)O)cn4)cc3F)nn12 [Compound F63] | 7.34 | 4.35 | – |
| CCc1cc(C(=O)N2CCCCCC2C)nc2cc(-c3c(F)cc(C(N)=O)cc3F)nn12 (stereo not shown) [Compound I27] | – | – | EC50 [1]: 0.251 µM; melting point: 160 to 165 °C; CC50 at 3 days [3]: > 25.1 µM |
| CCc1cc(C(=O)N2CCCCCC2C)nc2cc(-c3ccc(NC(=O)c4nccn4C)cc3)nn12 (stereo not shown) [Compound E22] | – | – | EC50 [1]: 1.7 µM; melting point: 196 to 198 °C; CC50 at 3 days [3]: 21.9 µM |
